According to patent EP4755881A1 (Wuhan Createrna Science and Technology Co., Ltd., priority 2023, dated 2025):
Read-outs that look alike come from different tables or passages of the source.

Assays:
[1] = target: T1, LPAR1 receptor (Homo sapiens, UniProt Q92633); test: LPAR1 in vitro biological activity evaluation 2: HTRF cAMP kit (LANCE Ultra cAMP Kit) assay in CHO stable transfected cell line expressing the LPAR1 receptor; format: cell-based; conditions: Table 2, read-out: LPAR1 inhibitory activity IC50
T1 construct: expressed in transfected cells
Protocol: The inhibitory effects of the compounds of the present disclosure on the LPAR1 receptor were determined using a Chinese hamster ovary (CHO) stable transfected cell line expressing the LPAR1 receptor, through the HTRF cAMP kit (LANCE® Ultra cAMP Kit).
The CHO cell line expressing the LPAR1 receptor was cultured in F-12 medium (Gibco, 117650054) containing 10% fetal bovine serum (FBS, Avantor, 76294-180) and 0.2 mg/mL hygromycin B (Solarbio, H8080-1g) at 37°C with 5% CO2. Cell passage, recovery, and cryopreservation were performed according to conventional methods. The stable transfected cell line was cultured to 80% confluence, digested with trypsin to collect cells, counted, and then seeded at 5 µL/well in a 384-well plate (500 cells/5 µL). The 1× Stimulation Buffer was prepared according to the instructions of the kit (LANCE® Ultra cAMP Kit). 1 µL of the test compound solution (diluted to 10× with 1× Stimulation Buffer) was added to the corresponding experimental wells, followed by centrifugation and incubation at 37°C for 10 minutes. […] 5 µL/well of Eu-cAMP (diluted with Detection buffer) was added to the corresponding experimental wells. 5 µL/well of ULight™-anti-cAMP antibody (diluted with Detection buffer) was added to the corresponding experimental wells, followed by centrifugation and incubation at room temperature for 1 hour. After the incubation was completed, the readings at 665 nm and 620 nm under 330 nm excitation were detected using the HTS high-throughput drug screening multifunctional microplate reader (BMG, PHERAstar FSX). The IC50 values were calculated by fitting nonlinear regression (dose response - variable slope) using GraphPad Prism software.

[2] = Pharmacokinetic study in rats (oral gavage and tail vein injection, plasma LC-MS/MS); format: in vivo; conditions: rat; for Cmax: read-out: Cmax
Method in brief: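 Male SD rats (200–250 g) are dosed orally (fasted; 5% DMSO/5% ethanol/60% PEG400/30% saline) or by tail-vein injection (10% ethanol/20% water/70% PEG400). Plasma sampled up to 24 h is analysed by LC-MS/MS. Non-compartmental analysis yields Cmax, C0, Tmax, AUC and T1/2.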

T1 sequence (Q92633 whole entry): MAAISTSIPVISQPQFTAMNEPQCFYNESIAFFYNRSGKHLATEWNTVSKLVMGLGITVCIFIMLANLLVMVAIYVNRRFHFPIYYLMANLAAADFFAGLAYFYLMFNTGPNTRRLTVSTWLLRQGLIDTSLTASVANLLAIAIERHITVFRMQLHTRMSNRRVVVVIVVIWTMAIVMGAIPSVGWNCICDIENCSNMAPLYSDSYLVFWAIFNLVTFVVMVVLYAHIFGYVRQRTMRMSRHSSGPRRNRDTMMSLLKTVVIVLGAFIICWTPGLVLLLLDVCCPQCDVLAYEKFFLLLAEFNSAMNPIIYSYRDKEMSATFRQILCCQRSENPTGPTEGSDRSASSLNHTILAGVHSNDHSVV

CCCC(C)OC(=O)Nc1c(-c2ccc(C#CC3CCCC3C(=O)O)c(C)n2)nnn1C (single isomer, unassigned) [305-B]
IC50 [1]: 81.5 nM | AUC(0-t) ([2]; SD rats, Iv, 1 mg/kg): 3000 to 5000 ng·h/mL | half-life ([2]; SD rats, Iv, 1 mg/kg): 3.52 h | Cmax ([2]; SD rats, Iv, 1 mg/kg): 800 to 5000 ng/mL | AUC(0-t) ([2]; SD rats, Po, 1 mg/kg): 5000 to 10000 ng·h/mL | half-life ([2]; SD rats, Po, 1 mg/kg): 3.49 h | Cmax ([2]; SD rats, Po, 1 mg/kg): 800 to 5000 ng/mL

CCCN(C)C(=O)OCc1c(-c2ccc(O[C@H]3CCC[C@H](C(=O)O)C3)c(C)n2)nnn1C [Control compound 1, reference compound]
IC50 [1]: 407 nM | half-life ([2]; male, SD, iv, 1 mg/kg): 3.26 h | half-life ([2]; male, SD, po, 1 mg/kg): 2.37 h | half-life ([2]; male, SD, po, 3 mg/kg): 2.59 h | AUC(0-t) ([2]; male, SD rats, Iv, 1 mg/kg): 811 ng·h/mL | Cmax ([2]; male, SD rats, Iv, 1 mg/kg): 1570 ng/mL | AUC(0-t) ([2]; male, SD rats, Po, 1 mg/kg): 626 ng·h/mL | Cmax ([2]; male, SD rats, Po, 1 mg/kg): 154 ng/mL | AUC(0-t) ([2]; male, SD rats, Po, 3 mg/kg): 1540 ng·h/mL | Cmax ([2]; male, SD rats, Po, 3 mg/kg): 985 ng/mL

CCc1nc(-c2nnn(C)c2NC(=O)O[C@H](C)CC(C)(F)F)ccc1C#CC1(CC(=O)O)CC1 [compound 232]
IC50 [1]: 75.4 nM | AUC(0-t) ([2]; SD rats, Iv, 1 mg/kg): 5000 to 10000 ng·h/mL | half-life ([2]; SD rats, Iv, 1 mg/kg): 14.5 h | Cmax ([2]; SD rats, Iv, 1 mg/kg): 800 to 5000 ng/mL | AUC(0-t) ([2]; SD rats, Po, 1 mg/kg): 3000 to 5000 ng·h/mL | half-life ([2]; SD rats, Po, 1 mg/kg): 14 h | Cmax ([2]; SD rats, Po, 1 mg/kg): 200 to 800 ng/mL

Cc1nc(-c2onc(C)c2NC(=O)O[C@H](C)CC(C)(F)F)ccc1C#CC1(CC(=O)O)CC1 [compound 276]
IC50 [1]: 96.4 nM | AUC(0-t) ([2]; SD rats, Iv, 1 mg/kg): 3000 to 5000 ng·h/mL | half-life ([2]; SD rats, Iv, 1 mg/kg): 3.69 h | Cmax ([2]; SD rats, Iv, 1 mg/kg): 800 to 5000 ng/mL

Cc1nc(-c2nnn(C)c2NC(=O)O[C@H](C)c2ccccc2)ccc1C#C[C@@H]1CC[C@H]1C(=O)O [compound 309]
IC50 [1]: 83.2 nM | half-life ([2]; male, SD, iv, 1 mg/kg): 4.36 h | half-life ([2]; male, SD, po, 1 mg/kg): 4.08 h | AUC(0-t) ([2]; male, SD rats, Iv, 1 mg/kg): 3000 to 5000 ng·h/mL | Cmax ([2]; male, SD rats, Iv, 1 mg/kg): 800 to 5000 ng/mL | AUC(0-t) ([2]; male, SD rats, Po, 1 mg/kg): 5000 to 10000 ng·h/mL | Cmax ([2]; male, SD rats, Po, 1 mg/kg): 800 to 5000 ng/mL

CCC(F)(F)[C@@H](C)OC(=O)Nc1c(C)noc1-c1ccc(C#CC2(CC(=O)O)CC2)c(CF)n1 [compound 335]
IC50 [1]: 113 nM

Cc1nc(-c2onc(C)c2NC(=O)O[C@H](C)CC(C)(F)F)ccc1C#C[C@@H]1CC[C@H]1C(=O)O [compound 340]
IC50 [1]: 83.9 nM

Cc1nc(-c2nnn(C)c2NC(=O)O[C@H](C)c2ccccc2)ccc1C#C[C@@H]1CCC[C@H]1C(=O)O [compound 402]
IC50 [1]: 47.2 nM

CCC[C@@H](C)OC(=O)Nc1c(-c2ccc(C#CC3(CC(=O)O)CC(OCC)C3)c(C)n2)nnn1C (stereo partly drawn) [compound 427]
IC50 [1]: 59 nM

CCOC1CC(C#Cc2ccc(-c3nnn(C)c3NC(=O)O[C@H](C)C(F)(F)CC)nc2C)(CC(=O)O)C1 (stereo partly drawn) [compound 429]
IC50 [1]: 33.4 nM | half-life ([2]; male, SD, iv, 1 mg/kg): 6.87 h | half-life ([2]; male, SD, po, 1 mg/kg): 5.7 h | AUC(0-t) ([2]; male, SD rats, Iv, 1 mg/kg): 3000 to 5000 ng·h/mL | Cmax ([2]; male, SD rats, Iv, 1 mg/kg): 5000 to 8000 ng/mL | AUC(0-t) ([2]; male, SD rats, Po, 1 mg/kg): 3000 to 5000 ng·h/mL | Cmax ([2]; male, SD rats, Po, 1 mg/kg): 200 to 800 ng/mL

CCOC1CC(C#Cc2ccc(-c3nnn(C)c3NC(=O)O[C@H](C)CC(C)(F)F)nc2C)(CC(=O)O)C1 (stereo partly drawn) [compound 430]
IC50 [1]: 63.2 nM

Cc1nc(-c2nnn(C)c2NC(=O)O[C@H](C)C23CC(C2)C3)ccc1C#CC1(CC(=O)O)CC(F)(F)C1 [compound 432]
IC50 [1]: 16.6 nM

CCC(F)(F)[C@@H](C)OC(=O)Nc1c(-c2ccc(C#CC3(CC(=O)O)CC3)c(C)n2)noc1C [compound 444]
IC50 [1]: 48.4 nM | AUC(0-t) ([2]; SD rats, Iv, 1 mg/kg): 1200 to 3000 ng·h/mL | half-life ([2]; SD rats, Iv, 1 mg/kg): 2.91 h | Cmax ([2]; SD rats, Iv, 1 mg/kg): 800 to 5000 ng/mL | AUC(0-t) ([2]; SD rats, Po, 1 mg/kg): 3000 to 5000 ng·h/mL | half-life ([2]; SD rats, Po, 1 mg/kg): 3.61 h | Cmax ([2]; SD rats, Po, 1 mg/kg): 200 to 800 ng/mL

Cc1nc(-c2nnn(C)c2NC(=O)O[C@H](C)CC(C)(F)F)ccc1C#CC1(CC(=O)O)CC2(CC2)C1 [compound 448]
IC50 [1]: 6.8 nM

CCC(F)(F)[C@@H](C)OC(=O)Nc1c(-c2ccc(C#CC3(CC(=O)O)CC4(CC4)C3)c(C)n2)nnn1C [compound 449]
IC50 [1]: 5.6 nM

CCC(F)(F)[C@@H](C)OC(=O)Nc1c(-c2ccc(C#CC3(CC(=O)O)CC(OC)C3)c(Cl)n2)nnn1C (stereo partly drawn) [compound 461]
IC50 [1]: 23.4 nM

CCc1nc(-c2nnn(C)c2NC(=O)O[C@H](C)C(F)(F)CC)ccc1C#CC1(CC(=O)O)CC(OC)C1 (stereo partly drawn) [compound 462]
IC50 [1]: 48.7 nM | half-life ([2]; male, SD, iv, 1 mg/kg): 6.41 h | half-life ([2]; male, SD, po, 1 mg/kg): 5.41 h | AUC(0-t) ([2]; male, SD rats, Iv, 1 mg/kg): 5000 to 10000 ng·h/mL | Cmax ([2]; male, SD rats, Iv, 1 mg/kg): 8000 to 12000 ng/mL | AUC(0-t) ([2]; male, SD rats, Po, 1 mg/kg): 10000 to 20000 ng·h/mL | Cmax ([2]; male, SD rats, Po, 1 mg/kg): 800 to 5000 ng/mL

COC1CC(C#Cc2ccc(-c3nnn(C)c3NC(=O)O[C@H](C)c3ccccc3)nc2C)(CC(=O)O)C1 (stereo partly drawn) [compound 464]
IC50 [1]: 23.6 nM

COC1CC(C#Cc2ccc(-c3nnn(C)c3NC(=O)O[C@H](C)c3ccccc3Cl)nc2C)(CC(=O)O)C1 (stereo partly drawn) [compound 465]
IC50 [1]: 30.9 nM

COC1CC(C#Cc2ccc(-c3nnn(C)c3NC(=O)O[C@H](C)c3ccccc3F)nc2C)(CC(=O)O)C1 (stereo partly drawn) [compound 466]
IC50 [1]: 25.5 nM

CCOC1CC(C#Cc2ccc(-c3nnn(C)c3NC(=O)O[C@H](C)C(F)(F)CC)nc2Cl)(CC(=O)O)C1 (stereo partly drawn) [compound 467]
IC50 [1]: 16.5 nM
